The text below walks through data of patent US20110022129A1, “NANOPARTICLES FOR PHOTODYNAMIC THERAPY” (priority 2007, published 2011).

For data set [1], the system named is AB12, murine malignant pleural mesothelioma (MPM). Description: External-beam (980 nm infrared) nanophosphor-mediated photodynamic therapy of AB12 flank tumors in mice. Type of data set: in vivo, mouse (BALB/cJ). The following applies: for total number of surviving animals: sixty day observation, survivors/group size. As for the experimental part: Six to twelve week old, female BALB/cJ (AB12 tumor host) mice, obtained pathogen-free from Taconic Farms, were used for all of the experiments. Animals were kept in conventional conditions in micro-isolator cages in a laminar flow unit under ambient light with full access to food and water during experiments.
AB12, murine malignant pleural mesothelioma (MPM) was utilized for tumor inoculation. Cells were maintained in complete DMEM/F12 culture media in a 37° C. humidified 5% CO2 incubator.
Seventy balb/C mice were inoculated with 5×10^5 AB12, malignant mesothelioma cells via subcutaneous flank injection. The subsequent tumors were measured using digital calipers three times per week until the tumors reached ˜200-300 mm^3 at which time the mice were given their first treatment. Mice were divided into […]. The groups were as follows: i. Control, ii. Infrared light-Nanophosphor-Photosensitizer (IR-NP-PS), iii. IR-NP, iv. IR-PS, v. IR alone, vi. NP alone, and vii. PS alone. Groups ii, iii, and vi were administered intra-tumoral injections with 100 μl of 25 mg/ml nanophosphor suspension in saline at 72 and 48 h prior to only the first treatment. Groups ii, iv, and vii were administered weekly intra-peritoneal (i.p.) injections of 10 mg/kg Photofrin™, twenty-four hours before first treatment of each week.
For this procedure mice were anesthetized with i.p. ketamine and xylazine, 80 mg/kg and 12 mg/kg, respectively. A maximum dose of 1.0 W of 980 nm light (BW Tek) at the treatment surface was measured using an IR thermopile detector (Coherent, Inc) for a total dose of 28.3 J/cm^2. Pulsed light delivery method of 1 second ON, 2 seconds OFF for 1.5 hours was utilized to minimize damage of healthy tissue due to heat from the infrared light by allowing the tissue to dissipate the heat between delivery cycles. […] Over the course of the entire treatment program tumors were measured three times weekly and mice were monitored for signs of morbidity for 60 days or until tumors reached endpoint of 500 mm^3.

A further data set is described as follows: physchem. The conditions noted are these: aqueous with cosolvent or surfactant or cyclodextrin, kinetic from dmso stock.

In brackets after ≈: the same amount, converted by molar mass.

Description for physchem: Nanoparticles were isolated as previously described, and the concentration of free β-carotene in the filtrate measured.

Turning to Photofrin [IR-PS], the tumor regression result in data set [1] (over treatment program, in words) is listed as “No animals”. Further, the “total number of surviving animals” value in data set [1] is 0/10.

In general, solubility refers to the concentration that dissolves in the medium under given conditions. A lower solubility goes with little dissolved substance. With `CC1=C(/C=C/C(C)=C/C=C/C(C)=C/C=C/C=C(C)/C=C/C=C(C)/C=C/C2=C(C)CCCC2(C)C)C(C)(C)CCC1` [β-carotene], in the data set “physchem”, the solubility is around 50 µg/mL (≈ 93.1 µM).

For Photofrin [PS alone], the “total number of surviving animals” value in data set [1] is 0/9.
